Measured values from patent US20140106967A1, “AUXIN PLANT GROWTH REGULATORS” (The Governors of The University of Alberta, priority 2011, published 2014).
One block for each compound: values may come before it.

Legend:
pea pericarp [1] = assay: Split-pericarp assay: growth of deseeded pea pericarps attached to the plant; type: in vivo, Pisum sativum
Text: In addition to GAs, developing pea seeds and pericarps contain two auxins, 4-chloroindole-3-acetic acid (4-Cl-IAA) and indole-3-acetic acid (IAA) (Magnus et al. 1997). A split-pericarp assay where test compounds are applied to the inner wall of split and deseeded pericarps that are still attached to the plant has been developed to examine the effects of exogenously applied growth substances on pericarp growth.
(§1) During early pea fruit growth, the physiological roles of 4-chloroindole-3-acetic acid (4-Cl-IAA) and IAA, both natural pea auxins, in regulating gibberellin (GA) 20-oxidase gene expression (PsGA20ox1) were tested with 4-position, ring-substituted auxins that have a range of biological activities (fruit growth). The effect of seeds, and natural and synthetic auxins (4-Cl-IAA, and IAA; 4-Me-IAA, 4-Et-IAA and 4-F-IAA, respectively), and auxin concentration (4-Cl-IAA) on PsGA20ox1 mRNA levels in pea pericarp were investigated over a 24 h treatment period. The ability of certain 4-substituted auxins to increase PsGA20ox1 mRNA levels in deseeded pericarp was correlated with their ability to stimulate pericarp growth.

[2] = tested on: PsGA20ox1, PsGA3ox1, PsGA2ox1; assay: GA biosynthesis/catabolism gene expression in pea pericarp; type: in vivo, Pisum sativum; conditions: 24 h treatment period
Protocol: as §1

pea pericarp [3] = conditions: cited from earlier work; for substitution for seeds in stimulating pericarp growth: deseeded pericarps, early pericarp growth (2 DAA); for substitution for the seeds in maintaining pea fruit growth in planta: in vivo
tomato fruit = conditions: cited from earlier work
[4] = tested on: AtGA20ox and AtGA3ox genes; conditions: non-pollinated fruits; cited from earlier work
pea 'Carneval' = assay: Growth chamber experiment 1, pea 'Carneval' sprayed with 4-Cl-IAA (Table P2); type: in vivo, Pisum sativum L.; conditions: for Seed yield per plant: sprayed near or at anthesis
Protocol: For growth chamber experiment, seeds of ‘Carneval’ were planted at an approximate depth of 2.5 cm in 3-L plastic pots (4 seeds per pot and thinned to 2 plants per pot after approximately 2 weeks) in 1:1 Sunshine #4 potting mix (Sun Gro Horticulture, Vancouver, Canada) and sand. The experiment was arranged in a completely randomized design and grown at the University of Alberta in a growth chamber set at 19° C./17° C. (day/night) with a 16/8-h photoperiod under cool-white fluorescent lights (54W/835/HO high fluorescent bulbs, Phillips, Holland; 350 μE m^2 s^−2). For the heat stress treatment, plants were placed in a separate growth chamber with a 16/8-h photoperiod under cool-white fluorescent lights (F54/15/835/HO high fluorescent bulbs, Phillips, Holland) for 4 days where the temperature was cycled over a 24 hr period as follows: 33° C. air temperature for 6 hours per day (between 11:00 and 17:00 hrs) for 4 days during the light cycle; the remainder of the light cycle was maintained at a 22° C. air temperature; the dark cycle was maintained at 19° C. After the 4 day heat treatment, the plants were returned to the same growth chamber they were originally grown in, where they were taken to maturity.
For experiment 1, aqueous 4-chloro-indole-3-acetic acid (4-Cl-IAA) solutions at 1×10^−7, 1×10^−6, or 1×10^−5M in 0.1% (v/v) Tween 80 or aqueous 0.1% (v/v) Tween 80 (control) were applied one time as a spray to the entire plant to cover when the first flowering node of the main stem was near or at anthesis.

canola cv. Peace = assay: Greenhouse canola study, foliar auxin spray at green bud stage, with or without heat stress (Tables C1-C4); type: in vivo, Brassica napus
Protocol: Canola seeds (Brassica napus) from the cultivar Peace were planted at an approximate depth of 1 cm in 5 inch square plastic pots (6 inch pot depth; 4 seeds per pot) in 1:1 Sunshine #4 potting mix (Sun Gro Horticulture, Vancouver, Canada) and sand. The seedlings were thinned to one seedling per pot approximately 2 weeks after seeding. Plants were grown at the University of Alberta in a greenhouse from Nov. 14, 2011 to Mar. 5, 2012. The average temperature was approximately 18° C. day/16° C. night (Nov. 14, 2011 to Feb. 8, 2012) then 21° C. day/19° C. night from Feb. 8 to Mar. 5, 2012. The plants also received supplemental lighting daily (average photon flux density of 250 μE m^−2s^−2) for 16 hours per day (from 6 am to 10 pm).
The auxins, 4-methyl-indole-3-acetic acid (4-ME-IAA) or 4-chloro-indole-3-acetic acid (4-Cl-IAA) at 1×10^−7, 1×10^−6, 1×10^−5, or 1×10^−4M in aqueous 0.1% (v/v) Tween 80 or a control solution (aqueous 0.1% [v/v] Tween 80) were applied one time as a foliar spray to canola plants at the green bud stage (BBCH scale 51; prior to bolting when flower buds are visible from above, but they are tightly clustered and have not extended above smallest leaves surrounding the inflorescence). The experiment was arranged in a completely randomized design in the greenhouse.
The heat stress treatment was imposed by moving plants to receive the heat stress from the greenhouse into a growth chamber for 6 days. The light cycle began at 7:00 hours at a 19° C. air temperature. The heat treatment began at 11:00 hours (33° C. air temperature) and was maintained for 6 hours (until 17:00 hours). Following the heat treatment, the remainder of the light cycle was maintained at a 22° C. air temperature. The dark cycle (began at 23:00 hours) was maintained at 17° C. The photoperiod was 16 h light/8 h dark at an average photon flux density of 492 μE m^−2s^−2 using 54W/835/HO high fluorescent bulbs, Phillips, Holland. This heat treatment cycle was imposed for 6 days. The plants were returned to the greenhouse after the heat stress treatment to develop to maturity.

[5] = tested on: PsGA20ox1, PsGA3ox1, PsGA2ox1; conditions: in vivo; cited from earlier work
[6] = 1×10^−4 M, heat stress 33° C. 6 h/day, 6 days (Table C4)
[7] = 1×10^−4 M, non-heat stress (Table C3)
[8] = 1×10^−5 M, heat stress 33° C. 6 h/day, 6 days (Table C4)
[9] = 1×10^−5 M, non-heat stress (Table C3)
[10] = 1×10^−6 M, heat stress 33° C. 6 h/day, 6 days (Table C4)
[11] = 1×10^−6 M, non-heat stress (Table C3)
[12] = 1×10^−7 M, heat stress 33° C. 6 h/day, 6 days (Table C4)
[13] = 1×10^−7 M, non-heat stress (Table C3)

Structure (SMILES): O=C(O)Cc1c[nH]c2cccc(F)c12 [4-F-IAA]
pericarp growth (biological activity) (pea pericarp [1]): minimal or no increase
PsGA20ox1 mRNA levels in deseeded pericarp [2]: minimal or no increase

Structure (SMILES): O=C(O)Cc1c[nH]c2ccccc12 [IAA, indole-3-acetic acid, reference compound]
pericarp growth (biological activity) (pea pericarp [1]): not effective
PsGA20ox1 mRNA levels in deseeded pericarp [2]: not effective
substitution for seeds in stimulating pericarp growth (pea pericarp [3]): cannot
substitution for the seeds in maintaining pea fruit growth in planta (pea pericarp [3]): not

Structure (SMILES): O=C(O)COc1ccc(Cl)cc1Cl [2,4-D]
parthenocarpic fruit growth (tomato fruit): induced parthenocarpic tomato fruit growth
expression of specific AtGA20ox and AtGA3ox genes [4]: up-regulated

Structure (SMILES): CCc1cccc2[nH]cc(CC(=O)O)c12 [4-Et-IAA]
pericarp growth (biological activity) (pea pericarp [1]): minimal or no increase
PsGA20ox1 mRNA levels in deseeded pericarp [2]: minimal or no increase

leaf epinasty (canola cv. Peace; 1×10^−4 M, 24 hours after treatment, milder under heat stress): leaf epinasty was observed
Structure (SMILES): O=C(O)Cc1c[nH]c2cccc(Cl)c12 [4-Cl-IAA, 4-chloroindole-3-acetic acid]
increase in seed yield vs control (pea 'Carneval'; 1×10^−5 M): 62%
Seed yield per plant (pea 'Carneval'; 1×10^−5 M): 18.28 ± 1.55 g
increase in seed yield vs control (pea 'Carneval'; 1×10^−6 M): 65%
Seed yield per plant (pea 'Carneval'; 1×10^−6 M): 18.61 ± 1.65 g
Seed yield per plant (pea 'Carneval'; 1×10^−7 M): 13.60 ± 1.33 g
% pod set (canola cv. Peace; [6]): 49 ± 4%
Seed yield (canola cv. Peace; [6]): 4.9 ± 0.8 g
Total number of flowers (canola cv. Peace; [6]): 312 ± 32
Total number of pods with developing seeds (canola cv. Peace; [6]): 151 ± 17
Total number of racemes (canola cv. Peace; [6]): 12 ± 1
Total number undeveloped pods (canola cv. Peace; [6]): 45 ± 15
% pod set (canola cv. Peace; [7]): 54 ± 4%
Seed yield (canola cv. Peace; [7]): 4.0 ± 0.3 g
Total number of flowers (canola cv. Peace; [7]): 201 ± 24
Total number of pods with developing seeds (canola cv. Peace; [7]): 106 ± 8
Total number of racemes (canola cv. Peace; [7]): 8 ± 1
Total number undeveloped pods (canola cv. Peace; [7]): 17 ± 4
reduction in number of racemes per plant vs control (canola cv. Peace; 1×10^−4 M, non-stress): 33%
reduction in seed yield vs control (canola cv. Peace; 1×10^−4 M, non-stress): 26%
reduction in total number of developing pods per plant vs control (canola cv. Peace; 1×10^−4 M, non-stress): 31%
% pod set (canola cv. Peace; [8]): 48 ± 2%
Seed yield (canola cv. Peace; [8]): 5.5 ± 1.0 g
Total number of flowers (canola cv. Peace; [8]): 414 ± 65
Total number of pods with developing seeds (canola cv. Peace; [8]): 198 ± 33
Total number of racemes (canola cv. Peace; [8]): 14 ± 2
Total number undeveloped pods (canola cv. Peace; [8]): 34 ± 6
increase in total number of pods with developing seeds per plant vs control (canola cv. Peace; 1×10^−5 M, non-heat stress): 27%
% pod set (canola cv. Peace; [9]): 57 ± 6%
Seed yield (canola cv. Peace; [9]): 5.8 ± 1.0 g
Total number of flowers (canola cv. Peace; [9]): 362 ± 53
Total number of pods with developing seeds (canola cv. Peace; [9]): 195 ± 21
Total number of racemes (canola cv. Peace; [9]): 14 ± 2
Total number undeveloped pods (canola cv. Peace; [9]): 47 ± 19
% pod set (canola cv. Peace; [10]): 53 ± 3%
Seed yield (canola cv. Peace; [10]): 6.8 ± 0.5 g
Total number of flowers (canola cv. Peace; [10]): 430 ± 39
Total number of pods with developing seeds (canola cv. Peace; [10]): 229 ± 30
Total number of racemes (canola cv. Peace; [10]): 15 ± 1
Total number undeveloped pods (canola cv. Peace; [10]): 42 ± 5
seed yield vs control (canola cv. Peace; 1×10^−6 M, mild heat stress): significant increase
% pod set (canola cv. Peace; [11]): 59 ± 4%
Total number of flowers (canola cv. Peace; [11]): 290 ± 26
Total number of pods with developing seeds (canola cv. Peace; [11]): 174 ± 25
Total number of racemes (canola cv. Peace; [11]): 12 ± 1
Total number undeveloped pods (canola cv. Peace; [11]): 29 ± 4
% pod set (canola cv. Peace; [12]): 46 ± 3%
Seed yield (canola cv. Peace; [12]): 6.0 ± 0.9 g
Total number of flowers (canola cv. Peace; [12]): 443 ± 70
Total number of pods with developing seeds (canola cv. Peace; [12]): 197 ± 15
Total number of racemes (canola cv. Peace; [12]): 13 ± 2
Total number undeveloped pods (canola cv. Peace; [12]): 43 ± 14
increase in percent pod set vs control (canola cv. Peace; 1×10^−7 M, non-heat stress): 21%
increase in total number of pods with developing seeds per plant vs control (canola cv. Peace; 1×10^−7 M, non-heat stress): 18%
% pod set (canola cv. Peace; [13]): 64 ± 4%
Seed yield (canola cv. Peace; [13]): 6.2 ± 0.6 g
Total number of flowers (canola cv. Peace; [13]): 287 ± 29
Total number of pods with developing seeds (canola cv. Peace; [13]): 181 ± 14
Total number of racemes (canola cv. Peace; [13]): 10 ± 1
Total number undeveloped pods (canola cv. Peace; [13]): 26 ± 9
pericarp growth (biological activity) (pea pericarp [1]): greatest increase
PsGA20ox1 mRNA levels in deseeded pericarp [2]: greatest increase
substitution for seeds in stimulating pericarp growth (pea pericarp [3]): can substitute for seeds in stimulating pericarp growth
substitution for the seeds in maintaining pea fruit growth in planta (pea pericarp [3]): can substitute for the seeds
gene expression of the GA catabolic gene PsGA2ox1 [5]: repress
pericarp GA biosynthesis gene expression, PsGA20ox1 and PsGA3ox1 [5]: stimulate
